Experimental data reported in US20240199571A1, “THIOPHENE COMPOUND AND APPLICATION THEREOF” (MEDSHINE DISCOVERY INC., priority 2021, published 2024).
Structures can show the parent of a compound that is named as a salt.

How the values were obtained:
[1] = biological target: hERG potassium ion channels (Homo sapiens (Human), UniProt Q12809); test: Experiment 4: hERG potassium ion channel inhibition, automated patch clamp (Qpatch), CHO-hERG cells; format: cell-based; conditions: highest test concentration 40 μM
hERG potassium ion channels, sequence (Q12809 whole entry): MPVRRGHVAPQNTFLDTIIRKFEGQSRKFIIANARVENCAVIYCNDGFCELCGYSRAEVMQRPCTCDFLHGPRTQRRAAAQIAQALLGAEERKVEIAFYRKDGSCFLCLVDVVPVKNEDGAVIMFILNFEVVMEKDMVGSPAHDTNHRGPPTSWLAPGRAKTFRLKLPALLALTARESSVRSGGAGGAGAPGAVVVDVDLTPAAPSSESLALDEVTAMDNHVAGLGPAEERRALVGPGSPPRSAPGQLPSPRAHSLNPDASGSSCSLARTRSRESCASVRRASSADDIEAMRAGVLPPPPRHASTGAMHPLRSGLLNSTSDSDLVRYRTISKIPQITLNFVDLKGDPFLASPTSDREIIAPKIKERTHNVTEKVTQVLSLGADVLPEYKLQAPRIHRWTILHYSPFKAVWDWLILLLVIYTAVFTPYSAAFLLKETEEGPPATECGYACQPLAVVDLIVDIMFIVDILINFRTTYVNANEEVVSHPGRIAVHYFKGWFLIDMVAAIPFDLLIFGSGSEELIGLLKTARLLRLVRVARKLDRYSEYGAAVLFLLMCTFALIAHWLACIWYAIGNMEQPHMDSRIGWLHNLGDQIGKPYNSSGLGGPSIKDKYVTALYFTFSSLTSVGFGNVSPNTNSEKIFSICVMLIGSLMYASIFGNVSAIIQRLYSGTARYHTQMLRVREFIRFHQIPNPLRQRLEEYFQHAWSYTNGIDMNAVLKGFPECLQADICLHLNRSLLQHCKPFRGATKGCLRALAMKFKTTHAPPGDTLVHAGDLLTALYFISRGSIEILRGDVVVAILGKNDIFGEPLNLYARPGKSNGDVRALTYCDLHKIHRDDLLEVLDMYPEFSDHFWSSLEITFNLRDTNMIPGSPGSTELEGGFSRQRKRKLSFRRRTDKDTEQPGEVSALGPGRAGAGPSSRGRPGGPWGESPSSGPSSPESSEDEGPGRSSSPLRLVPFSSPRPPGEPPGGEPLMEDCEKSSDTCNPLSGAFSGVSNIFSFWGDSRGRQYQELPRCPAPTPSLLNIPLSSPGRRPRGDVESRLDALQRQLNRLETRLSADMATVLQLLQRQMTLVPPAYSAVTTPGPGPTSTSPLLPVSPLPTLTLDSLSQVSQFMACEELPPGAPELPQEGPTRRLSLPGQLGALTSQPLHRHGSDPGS
How it was run: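 Whole-cell automated patch clamp on CHO-hERG cells held at −80 mV: 50 ms −50 mV prepulse, 5 s +40 mV step, 5 s repolarization to −50 mV, every 15 s. Six final concentrations from 0.165 to 40 μM applied ascending, 2.5 min each; n≥3 cells per concentration.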

[2] = Experiment 3: pharmacokinetic evaluation in CD-1 mice (IV and oral); format: in vivo; conditions: mouse, plasma, male CD-1 mice; for clearance / half-life / Vd: IV 1 mg/kg; for clearance: read-out: Clearance rate CL; for half-life: read-out: Half life T1/2 (IV, h) (converted); for Vd: read-out: Volume of distribution at steady state Vdss; for bioavailability: PO 2 mg/kg vs IV 1 mg/kg, read-out: Bioavailability F (%); for AUC(0-t): PO 2 mg/kg, read-out: Area under drug-time curve AUC0-last PO; for Cmax: single dose, oral 2 mg/kg, read-out: Peak concentration Cmax
How it was run: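 Male/female CD-1 mice aged 7-9 weeks, two per route, received single doses of 1 mg/kg IV or 2 mg/kg oral gavage in 10% DMSO/90% of 10% HP-β-cyclodextrin. Plasma was sampled from 0.083 (IV) or 0.25 (PO) to 24 h. Methanol-precipitated samples were measured by LC-MS/MS to derive Cmax, CL, T1/2, Vdss, AUC0-last and F.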

human LSD1 = human LSD1 (Homo sapiens (Human), UniProt O60341); test: Experiment 1B: in vitro LSD1 enzyme activity, enzyme-coupled fluorescence (HRP/Amplex Red), H3(1-21)K4me2 peptide 10 μM (Reaction Biology); format: biochemical; conditions: histone H3(1-21)K4me2 peptide 10 μM
How it was run: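 Human LSD1 with 10 μM histone H3(1-21)K4me2 peptide; enzyme and substrate incubated 30 min before compound addition started the reaction. H2O2 detected via HRP/Amplex Red fluorescence (Ex/Em 535/590). IC50 from 10-point 3-fold dilutions starting at 10 μM.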

| SMILES | IC50 [1] | clearance [2] | half-life [2] | Vd [2] | bioavailability [2] | AUC(0-t) [2] | Cmax [2] | IC50 (human LSD1) |
| --- | --- | --- | --- | --- | --- | --- | --- | --- |
| CC(C)(CO)n1cc2cc(-c3sc(C(=O)N4CCC[C@@H](N)C4)cc3-c3ccc(C#N)c(F)c3)ccc2n1 [Hydrochloride of compound 87] | 13.4 µM | 25.7 mL/min/kg | 1.54 h | 3.13 L/kg | 41.1% | 1.01 µM·h | 267 nM | 0.0248 µM |
| CN[C@@H]1CCCN(C(=O)c2cc(-c3ccc(C#N)c(F)c3)c(-c3cc4nnn(CC(C)(C)O)c4c(F)c3F)s2)C1 [Hydrochloride of compound 98] | 18.6 µM | 45.3 mL/min/kg | 2.28 h | 6.94 L/kg | 58.6% | 0.708 µM·h | 160 nM | 0.0126 µM |
